Values of other authors as cited in US20110082545A1, “DRUG ELUTING BREAST IMPLANT COVER OR COATING” (LIPOSE CORPORATION, priority 2009, published 2011).

Tested on: capsular contracture
Conditions: administered orally

Compound: COc1cc(C(=O)NS(=O)(=O)c2ccccc2C)ccc1Cc1cn(C)c2ccc(NC(=O)OC3CCCC3)cc12 [zafirlukast]
- ability to moderate the capsular contracture: demonstrated the ability to moderate the capsular contracture
